From US9790173B2, “Alpha-7 nicotinic acetylcholine receptor modulators and uses thereof-I” (MERCK SHARP & DOHME CORP., priority 2012, dated 2017)

Target: T1, rat α7 nAChRs (Rattus norvegicus, UniProt Q05941)
T1 construct: expressed in transfected cells; host or cells: GH4C1 cells (rat pituitary line) stably expressing α7 nAChR
Assay: Automated planar patch clamp (Patchliner) electrophysiology, α7 nAChR PAM activity
Assay type: cell-based
Design: key to Type I or Type II: I: Type 1 predominately affects the peak current; Type II modulators affect the peak current and also delay the desensitization of the receptor
Conditions: for Type I or Type II: modulator type based on the electrophysiology trace; for activation at 3 µM: GH4-C1, 3 μM compound in the presence of acetylcholine, GH4C1 cells expressing rat α7 nAChRs, peak current, read-out: Peak potentiation at 3 μM compound
Procedure: Tested compounds were prepared by serial dilutions of 10 mM stock solution in DMSO to concentrations of the compound 1000 times higher than its final concentration. The DMSO stock solutions were then diluted 1:100 in the recording buffer bringing DMSO concentration to 1%. These intermediate solutions were further diluted 10 times with buffer to obtain final concentrations and lower DMSO concentration to 0.1%. […]
Compounds of the invention may be evaluated by electrophysiology using a Patchliner® (Nanion Technologies GmbH, Germany), an automated planar patch-clamp platform of medium throughput was used as a first step in electrophysiological assessment of α7 nAChR positive allosteric modulators (PAMs).
Briefly, intracellular (KCl—50 mM, NaCl—10 mM, KF—60 mM, EGTA—20 mM, HEPES—10 mM, pH—7.2, 285 mOsmol) and extracellular (NaCl—140 mM, KCl—4 mM, CaCl2—2 mM, MgCl2—1 mM, HEPES—10 mM, D-Glucose—5 mM, pH—7.4, 298 mOsmol) solutions were automatically pipetted onto NPC-16 chip (medium resistance ˜2.5-2.6 MΩ). Suspension of GH4C1 cells expressing rat α7 nAChRs was introduced in 4 wells of a medium resistance chip and suction was applied to attract cells in the holes. The extracellular solution was subsequently exchanged to high calcium solution (NaCl—80 mM, KCl—3 mM, CaCl2—45 mM, HEPES—10 mM, pH—7.4, 298 mOsmol) followed by gigaohm seal formation and obtaining whole-cell configuration. The rest of protocol was carried out in the high-calcium recording solution. Holding potential was −70 mV throughout the protocol. A control response to 60 or 100 μM of ACh was obtained first. Next, a cell was pre-incubated with compound of interest at 3 μM for ˜30 s after which the compound was co-applied with acetylcholine.
Amplitude of the responses was measured in HEKA Patchmaster software (HEKA Elektronik, Germany) and percentage of potentiation calculated. Recording was repeated […] a minimum of two replicates had been obtained per compound.
Compounds shown in Table 1 were evaluated by automated planar patch clamp on the Patchliner® as described in Example P2.1. […] The compounds are designated either as Type I or Type II modulators based on the electrophysiology trace. Type 1 predominately affects the peak current. Type II modulators affect the peak current and also delay the desensitization of the receptor.

T1 sequence (Q05941 23-502): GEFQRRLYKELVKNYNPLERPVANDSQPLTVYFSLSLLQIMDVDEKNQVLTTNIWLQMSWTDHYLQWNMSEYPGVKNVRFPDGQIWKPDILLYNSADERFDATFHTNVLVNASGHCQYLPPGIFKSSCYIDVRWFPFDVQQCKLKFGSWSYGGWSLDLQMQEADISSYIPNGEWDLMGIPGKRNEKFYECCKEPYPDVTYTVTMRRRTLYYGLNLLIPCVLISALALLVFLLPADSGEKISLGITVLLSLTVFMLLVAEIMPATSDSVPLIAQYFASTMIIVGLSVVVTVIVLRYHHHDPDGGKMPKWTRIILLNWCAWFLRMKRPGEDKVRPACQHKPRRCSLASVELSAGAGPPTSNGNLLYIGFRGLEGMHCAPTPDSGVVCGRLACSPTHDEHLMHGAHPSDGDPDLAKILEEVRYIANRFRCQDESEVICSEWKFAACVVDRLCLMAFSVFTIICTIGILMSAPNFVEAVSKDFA

| Structure (SMILES) | Type I or Type II | activation at 3 µM |
| --- | --- | --- |
| CC1(C)C(c2ccc(S(N)(=O)=O)cc2)[C@H]1CNc1ccc(F)c(C(F)(F)F)c1 (mixture of isomers) [Example 33, ±trans 4-[3-({[4-fluoro-3-(trifluoromethyl)phenyl]amino}methyl)-2,2-dimethylcyclopropyl]benzenesulfonamide] | II |  |
| CC1(C)C(c2ccc(S(N)(=O)=O)cc2)[C@H]1CNc1ccc(F)cc1OC(F)F (mixture of isomers) [Example 34, ±trans 4-[3-({[2-(difluoromethoxy)-4-fluorophenyl]amino}methyl)-2,2-dimethylcyclopropyl]benzenesulfonamide] | II |  |
| CC(C)(C)c1cc(NC[C@@H]2C(c3ccc(S(N)(=O)=O)cc3)C2(C)C)no1 (mixture of isomers) [Example 35, ±trans 4-(3-{[(5-tert-butyl-1,2-oxazol-3-yl)amino]methyl)}2,2-dimethylcyclopropyl)benzenesulfonamide] | II | 57% |
| Cc1cc(F)ccc1NC[C@@H]1[C@@H](c2ccc(S(N)(=O)=O)cc2)C1(C)C (racemic) [Example 38, ±trans 4-[-3-{[(4-fluoro-2-methylphenyl)amino]methyl}-2,2-dimethylcyclopropyl]benzenesulfonamide] | II |  |
| COc1ccc(Cl)cc1NC[C@@H]1[C@@H](c2ccc(NS(C)(=O)=O)cc2)C1(C)C (racemic) [Example 46, ±trans N-{4-[3-{[(5-chloro-2-methoxyphenyl)amino]methyl}-2,2-dimethylcyclopropyl]phenyl}methanesulfonamide] | I | 783% |
| COc1ccc(Cl)cc1NC[C@@H]1[C@@H](c2ccc(NS(N)(=O)=O)cc2)C1(C)C (racemic) [Example 59, ±trans N-[4-(3-{[(5-chloro-2-methoxyphenyl)amino]methyl}-2,2-dimethylcyclopropyl)phenyl]sulfuric diamide] | I |  |
| CC1(C)[C@H](CNC2CCCCC2(F)F)[C@H]1c1ccc(S(N)(=O)=O)cc1 (relative stereo) [Example 62, trans 4-(3-{[(2,2-difluorocyclohexyl)amino]methyl}-2,2-dimethylcyclopropyl)benzenesulfonamide] | II | 38% |
| COc1ccc(Cl)cc1NC[C@@H]1[C@@H](c2ccc(NS(C)(=O)=O)cc2)C1(C)C (single isomer, unassigned; enantiomer a) [Example 47] | I | 867% |
| Cc1cc(F)ccc1NC[C@@H]1[C@@H](c2ccc(S(N)(=O)=O)cc2)C1(C)C (single isomer, unassigned; enantiomer a) [Example 57, Enantiomer A of trans 4-[3-{[(4-fluoro-2-methylphenyl)amino]methyl}-2,2-dimethylcyclopropyl]benzenesulfonamide] | I | 473% |
| Cc1cc(F)ccc1NC[C@H]1[C@H](c2ccc(S(N)(=O)=O)cc2)C1(C)C (single isomer, unassigned; enantiomer b) [Example 58, Enantiomer B of trans 4-[3-{[(4-fluoro-2-methylphenyl)amino]methyl}-2,2-dimethylcyclopropyl]benzenesulfonamide] | II |  |
| NS(=O)(=O)c1ccc([C@@H]2C[C@H]2CNc2cc(F)ccc2OC(F)(F)F)cc1 (stereo in doubt) [Example 53, 4-[(1R,2R)-2-({[5-fluoro-2-(trifluoromethoxy)phenyl]amino}methyl)cyclopropyl]benzenesulfonamide] | II |  |
| COc1ccc(Cl)cc1NC[C@H]1C[C@@H]1c1ccc(S(N)(=O)=O)cc1 [Example 1, ±trans 4-(2-{[(5-chloro-2-methoxyphenyl)amino]methyl}cyclopropyl)benzenesulfonamide] | II |  |
| NS(=O)(=O)c1ccc([C@H]2C[C@@H]2CNc2ccc(F)c(F)c2)cc1 [Example 2, ±trans 4-(2-{[(3,4-difluorophenyl)amino]methyl}cyclopropyl)benzenesulfonamide] | II |  |
| COc1ccc(Cl)cc1NC[C@@H]1[C@@H](c2ccc(S(N)(=O)=O)cc2)C1(C)C [Example 4, ±trans 4-(3-{[(5-chloro-2-methoxyphenyl)amino]methyl}-2,2-dimethylcyclopropyl)benzenesulfonamide] | II |  |
| CC1(C)[C@H](CNc2ccccc2)[C@H]1c1ccc(S(N)(=O)=O)cc1 [Example 5, ±trans 4-{2,2-dimethyl-3-[(phenylamino)methyl]cyclopropyl}benzenesulfonamide] | II |  |
| CN(C[C@@H]1[C@@H](c2ccc(S(N)(=O)=O)cc2)C1(C)C)c1ccccc1 [Example 6, ±trans 4-(2,2-dimethyl-{[methyl(phenyl)amino]methyl}cyclopropyl)benzenesulfonamide] | I | 506% |
| COc1ccc(Cl)cc1N(C)C[C@@H]1[C@@H](c2ccc(S(N)(=O)=O)cc2)C1(C)C [Example 7, ±trans 4-(3-{[(5-chloro-2-methoxyphenyl)(methyl)amino]methyl}-2,2-dimethylcyclopropyl)benzenesulfonamide] | I | 134% |
| COc1ccc(Cl)cc1NC[C@@H]1[C@@H](c2ccc(S(N)(=O)=O)cc2)C12CCCC2 [Example 8, ±trans 4-(2-{[(5-chloro-2-methoxyphenyl)amino]methyl}spiro[2.4]hept-1-yl)benzenesulfonamide] | II |  |
| CC1(C)[C@H](CNc2cncc(F)c2)[C@H]1c1ccc(S(N)(=O)=O)cc1 [Example 10, ±trans 4-[3-{[(5-fluoropyridin-3-yl)amino]methyl}-2,2-dimethylcyclopropyl]benzenesulfonamide] | II |  |
| CC1(C)[C@H](CNc2ccnc(C(F)(F)F)c2)[C@H]1c1ccc(S(N)(=O)=O)cc1 [Example 11, ±trans 4-[2,2-dimethyl-3-({[2-(trifluoromethyl)pyridin-4-yl]amino}methyl)cyclopropyl]benzenesulfonamide] | II | 15% |
| NS(=O)(=O)c1ccc([C@H]2C[C@@H]2CNc2ccc(C(F)(F)F)cn2)cc1 [Example 12, ±trans 4-[2-({[5-(trifluoromethyl)pyridin-2-yl]amino}methyl)cyclopropyl]benzenesulfonamide] | I | 401% |
| CC1(C)[C@H](CNc2ccc(F)c(F)c2)[C@H]1c1ccc(S(N)(=O)=O)cc1 [Example 14, ±trans 4-[3-{[(3,4-difluorophenyl)amino]methyl}-2,2-dimethylcyclopropyl]benzenesulfonamide] | II |  |
| CC1(C)[C@H](CNc2ccc(F)cc2C(F)(F)F)[C@H]1c1ccc(S(N)(=O)=O)cc1 [Example 15, 4-[(1R,3R)-3-({[4-fluoro-2-(trifluoromethyl)phenyl]amino}methyl)-2,2-dimethylcyclopropyl]benzenesulfonamide] | I | 413% |
| CC1(C)[C@H](CNc2cc(F)ccc2OCC(F)(F)F)[C@H]1c1ccc(S(N)(=O)=O)cc1 [Example 16, 4-[(1R,3R)-3-({[5-fluoro-2-(2,2,2-trifluoroethoxy)phenyl]amino}methyl)-2,2-dimethylcyclopropyl]benzenesulfonamide] | I | 236% |
| NS(=O)(=O)c1ccc([C@@H]2C[C@H]2CNc2ccc(F)cc2)cc1 [Example 18, 4-[(1R,2R)-2-{[(4-fluorophenyl)amino]methyl}cyclopropyl]benzenesulfonamide] | I |  |
| NS(=O)(=O)c1ccc([C@@H]2C[C@H]2CNc2ccc(C(F)(F)F)cn2)cc1 [Example 19, 4-[(1R,2R)-2-({[5-(trifluoromethyl)pyridin-2-yl]amino}methyl)cyclopropyl]benzenesulfonamide] | I | 762% |
| COc1ccccc1NC[C@@H]1[C@@H](c2ccc(S(N)(=O)=O)cc2)C1(C)C [Example 25, ±trans 4-[3-{[(2-methoxyphenyl)amino]methyl}-2,2-dimethylcyclopropyl]benzenesulfonamide] | II |  |
